7 compounds from ChEMBL document CHEMBL1201862, “PubChem BioAssay data set” (2004) can be followed below.

Structures are written as SMILES.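 Exposure lasted 48 hours, with cells grown in 96-well plates and compounds tested at five concentrations. At the GI50, growth is halved.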 Activity calls are given as the source filed them. Cut-off read from the data, not from the text of the source: active = GI50 up to about 1.1 µM and inactive = higher.

Some test systems named below: 786-0; A549; ACHN; CCRF-CEM; COLO 205; DU-145; HCC 2998; HCT-116; HT-29; MDA-MB-231; MOLT-4; NCI-H522; OVCAR-4; OVCAR-5; OVCAR-8; SF-295; SNB-75; TK-10; UACC-257; UO-31.
Common to all, as to test: NCI tumour cell line growth inhibition, 48 h

For the compound `COc1ccc(N2C(=O)C3c4[nH]c5ccccc5c4C4c5ccccc5CC4C3C2=O)cc1` (stereo not given), the GI50 in the test with 786-0, in the test on A549, in the test with ACHN, in the test with CCRF-CEM, in the test with COLO 205 and in the test with DU-145 was > 100 µM (inactive) in each case. The GI50 in the test with HCC 2998, in the test with HCT-116, in the test on HT-29, in the test with MDA-MB-231, with MOLT-4 and in the test with NCI-H522 was > 100 µM (inactive) throughout. Besides, the GI50 with OVCAR-4, in the test on OVCAR-5, in the test on OVCAR-8, with SF-295, in the test on SNB-75 and in the test on TK-10 was > 100 µM (inactive) throughout. Besides, the GI50 with UACC-257 and with UO-31 was > 100 µM (inactive) throughout.

Take `COc1ccc2c3c1OC1C4(CCC5C(C2)N(CC2CC2)CCC351)OCCO4` (stereo not given): the GI50 in the test on 786-0, in the test with A549, in the test with ACHN, with CCRF-CEM, in the test on COLO 205 and with DU-145 was > 100 µM (inactive) throughout. Besides, the GI50 in the test on HCC 2998, in the test with HCT-116, with HT-29, in the test on MDA-MB-231, in the test on MOLT-4 and in the test on NCI-H522 was > 100 µM (inactive) each time. For the same compound, the GI50 with OVCAR-4, with OVCAR-5, in the test on OVCAR-8, in the test on SF-295, with SNB-75 and with TK-10 was > 100 µM (inactive) in each case. In addition, the GI50 in the test on UACC-257 and with UO-31 was > 100 µM (inactive) in each case.

In the case of `CCOc1ccc(NCC2CC/C(=C\C=C\c3ccccc3)C2=O)cc1` (stereo not given), the GI50 is 5.25 µM (inactive) in the test with 786-0; 42.1 µM (inactive) with A549; 30.5 µM (inactive) in the test with ACHN; 6.75 µM (inactive) in the test with CCRF-CEM; 13.7 µM (inactive) in the test with COLO 205; 33.2 µM (inactive) in the test on DU-145. The GI50 was 31.9 µM (inactive) with HCC 2998; 6.98 µM (inactive) in the test with HCT-116; 13.5 µM (inactive) in the test on HT-29; 9.14 µM (inactive) with MDA-MB-231; 5.2 µM (inactive) with MOLT-4; 8.61 µM (inactive) with NCI-H522. Also, the GI50 was 27.5 µM (inactive) with OVCAR-4; 21.5 µM (inactive) with OVCAR-5; 16.9 µM (inactive) in the test on OVCAR-8; 26.5 µM (inactive) in the test with SF-295; 23.2 µM (inactive) in the test with SNB-75; 19.9 µM (inactive) in the test with TK-10. Also, the GI50 in the test on UACC-257 was 18.5 µM (inactive); in the test on UO-31 it was 26.6 µM (inactive).

On to `CCN1CCC(CNC(=O)c2ccc(N)cc2)N1CC` (stereo not given), for which the GI50 with 786-0, in the test with A549, in the test with ACHN, in the test on CCRF-CEM, with COLO 205 and in the test with DU-145 was > 100 µM (inactive) in each case. Further, the GI50 in the test with HCC 2998, in the test with HCT-116, in the test with HT-29, with MDA-MB-231, in the test with MOLT-4 and in the test on NCI-H522 was > 100 µM (inactive) throughout. For the same compound, the GI50 in the test with OVCAR-4, in the test on OVCAR-5, in the test with OVCAR-8, with SF-295, in the test with SNB-75 and in the test on TK-10 was > 100 µM (inactive) throughout. Moreover, the GI50 in the test with UACC-257 and with UO-31 was > 100 µM (inactive) each time.

With `CC(=O)O[C@H]1C(=O)[C@@]2(C)[C@H]([C@H](OC(=O)c3ccco3)[C@]3(O)C[C@H](OC(=O)[C@H](O)[C@@H](NC(=O)c4ccccc4)c4ccccc4)C(C)=C1C3(C)C)[C@]1(OC(C)=O)CO[C@@H]1C[C@@H]2O`, the GI50 was 1.16 µM (inactive) with 786-0; 0.518 µM (active) with A549; 7.98 µM (inactive) in the test on ACHN; 0.05 µM (active) in the test with CCRF-CEM; 0.114 µM (active) with COLO 205; 0.676 µM (active) in the test with DU-145. For the same compound, the GI50 in the test with HCC 2998 was 0.296 µM (active); with HCT-116 it was 0.059 µM (active); with HT-29 it was 0.0393 µM (active); with MDA-MB-231, 4.58 µM (inactive); with MOLT-4, 0.114 µM (active); in the test on NCI-H522, 0.309 µM (active). Moreover, the GI50 in the test with OVCAR-4 was > 22.4 µM (inactive); in the test on OVCAR-5, 0.333 µM (active); in the test with OVCAR-8 it was 0.273 µM (active); in the test with SF-295, 1.45 µM (inactive); in the test on SNB-75, 0.134 µM (active); with TK-10, 8.41 µM (inactive). The values for the GI50 in the test on UACC-257 and in the test on UO-31 were 0.42 µM (active) and > 18.3 µM (inactive), respectively.

As for `O=c1[nH]nc(Cc2ccccc2)n1C1CCCC1`, the GI50 in the test with 786-0, in the test with A549, in the test with ACHN, with CCRF-CEM, with COLO 205 and in the test on DU-145 was > 100 µM (inactive) throughout. The GI50 in the test on HCC 2998, in the test on HCT-116, with HT-29, in the test with MDA-MB-231, in the test on MOLT-4 and in the test on NCI-H522 was > 100 µM (inactive) each time. Besides, the GI50 with OVCAR-4, with OVCAR-5, in the test with OVCAR-8, in the test on SF-295, with SNB-75 and in the test on TK-10 was > 100 µM (inactive) in each case. The GI50 with UACC-257 and with UO-31 was > 100 µM (inactive) in each case.

On to `Cc1cc(SCC(=O)c2ccc(Br)cc2)cc(C)[o+]1`, for which the GI50 was 33.5 µM (inactive) in the test on 786-0; 31.7 µM (inactive) with A549; 31.2 µM (inactive) in the test on ACHN; 16 µM (inactive) in the test on CCRF-CEM; 31.9 µM (inactive) in the test with COLO 205; 29.5 µM (inactive) with DU-145. For the same compound, the GI50 is 25.2 µM (inactive) in the test on HCC 2998; 23.8 µM (inactive) in the test with HCT-116; 25.1 µM (inactive) in the test on HT-29; 36.6 µM (inactive) in the test with MDA-MB-231; 17.4 µM (inactive) in the test with MOLT-4; 21.6 µM (inactive) in the test with NCI-H522. In addition, the GI50 in the test with OVCAR-4 is 24.9 µM (inactive); with OVCAR-5, 20.6 µM (inactive); with OVCAR-8, 32.4 µM (inactive); with SF-295 it was 26.6 µM (inactive); in the test on SNB-75, 20.3 µM (inactive); with TK-10 it was 35.1 µM (inactive). The GI50 with UACC-257 was 25.1 µM (inactive); in the test with UO-31, 26.6 µM (inactive).
